Assay results reported in patent US7964734B2, “Raloxifene acid addition salts and/or solvates thereof, improved method for purification of said raloxifene acid addition salts and/or solvates thereof and pharmaceutical compositions comprising these” (A/S Gea Farmaceutisk Fabrik, priority 2002, dated 2011).
Where a name gives a salt, the structure may show the parent alone. Read-outs that look alike come from different tables or passages of the source.

Key:
[1] = Intrinsic dissolution rate, Rotation Disc Method (USP 1087); format: physicochemical; conditions: 37° C., 100 rpm, average of two measurements
Protocol: The raloxifene hydrochloride salt used in these experiments was purchased from Otto Bradt GmbH (batch MA/RF/12003) while the rest of the raloxifene acid additions salts were prepared according to Example 1-6.
The experiments were carried out following the procedure of Rotation Disc Method (USP 1087) using Vankel VK 7000 Intrinsic dissolution apparatus (Vankel Technology group, W. Vankelion) equipped with Vankel 12-4120 intrinsic disc having a surface area of 0.5 cm^2, Vankel 12-4130 surface plate, Vankel 12-4140 punch, and Vankel shaft and holder (surface area: 0.5 cm^2) and operating at a rotation rate of 100 rpm.
The buffer solution is handled in a 750 ml measuring bottle, degassed and transferred into a dissolution vessel. Approximately 100 mg compound is weighed out and transferred into an intrinsic disc. Said disc is then assembled, and to said disc a disc is applied in the IR-press at a pressure of 5 kN for 1 minute. The disc is started and samples of 10 ml are collected by use of “pressure vials” after 1, 10, 20, 30, 45, and 60 minutes. The change of volume is corrected using the equation: Q=Vs×(sumCn−1)+Cn×Vt wherein Q designates the volume at the time t, C designates the concentration of the sample n, Vt designates the volume of the liquid collected at the time t, and Vs designates the volume of the sample collected. The sample is measured against a standard using HPLC. In these measurements a 5 microns 3.9×150 mm column filled with symmetrical material is employed and as eluant a 20 mM phosphate buffer KH2PO4, pH 6.8 mixed with acetonitrile and tetrahydrofuran in the ratio 55:35:10 is used.
The standard is prepared by use of following procedure: 20 mg of salt is dissolved initially in 100 ml of MeOH and then 1 ml of this solution is transferred to a 50 ml flask with water and then 2 ml to a 20 ml flask of buffer in question.
pH 1: a 0.1 M HCl is used.
0.025 M Phosphate buffer solution pH 2.0: 3.40 g of potassium dihydrogen phosphate is dissolved in 900 ml of water. Then pH is adjusted to 2.0 with phosphoric acid and diluted to 1000.0 ml with water. Exactly 5.85 g of NaCl is added to 1 L of buffer.
0.025 M Phosphate buffer solution pH 3.0: 3.40 g of potassium dihydrogen phosphate is dissolved in 900 ml of water. Then pH is adjusted to 3.0 with phosphoric acid and diluted to 1000.0 ml with water. Exactly 5.85 g of NaCl is added to 1 L of buffer.
0.022 M Phosphate buffer solution pH 4.0: 3.0 g of potassium dihydrogen phosphate is dissolved in 800 ml of water. Then pH is adjusted with 1 M potassium hydroxide and phosphoric acid and diluted to 1000.0 ml with water. Exactly 5.85 g of NaCl is added to 1 L of buffer. 0.02 M Phosphate buffer solution pH 5.0: 2.72 g of potassium dihydrogen phosphate is dissolved in 800 ml of water. Then pH is adjusted with 1 M potassium hydroxide and diluted to 1000.0 ml with water. Exactly 5.85 g of NaCl is added to 1 L of buffer.

[2] = Dissolution test in dilute acid, evaluated visually; format: physicochemical
Protocol: 60 mg raloxifene HCl was transferred to a dissolution vessel containing one liter 0.1 M HCl. The mixture was vigorously mixed and left at room temperature over night. Subsequently the dissolution was evaluated visually.
A similar dissolution test was performed using 60 mg raloxifene hydrochloride in 0.1 M phosphoric acid.

[3] = Solubility in aqueous solvents/media (general statement); format: physicochemical; conditions: versus aqueous media
[4] = cited from earlier work
[5] = Hydrochloride, pH 1 (0.1 M HCl)
[6] = Phosphate, pH 2, chloride 0.1 M
[7] = Phosphate, pH 3, chloride 0.1 M
[8] = Phosphate, pH 4, chloride 0.1 M
[9] = Phosphate, pH 5, chloride 0.1 M

Compound	intrinsic dissolution rate (IDR) [1, 5] [μmol/min * cm^2]	intrinsic dissolution rate (IDR) [1, 6] [μmol/min * cm^2]	intrinsic dissolution rate (IDR) [1, 7] [μmol/min * cm^2]	intrinsic dissolution rate (IDR) [1, 8] [μmol/min * cm^2]	intrinsic dissolution rate (IDR) [1, 9] [μmol/min * cm^2]	solubility in aqueous media comprising hydrochloric acid [3]	dissolution evaluated visually ([2]; 60 mg in 0.1 M phosphoric acid, similar test)	dissolution evaluated visually ([2]; 60 mg in one liter 0.1 M HCl, vigorously mixed, room temperature over night)	solubility in aqueous solvents ([4]; hydrochloride)	solubility in aqueous solvents [4]
C[C@H](O)C(=O)O.O=C(c1ccc(OCCN2CCCCC2)cc1)c1c(-c2ccc(O)cc2)sc2cc(O)ccc12 [L-Lactate ¼-hydrate]	0.0035	0.0028	0.0067	0.0324	0.0247					
O=C(c1ccc(OCCN2CCCCC2)cc1)c1c(-c2ccc(O)cc2)sc2cc(O)ccc12 [raloxifene as free base, 6-hydroxy-2-(4-hydrophenyl)-3-[4-(2-piperidinoethoxy)-benzoyl]benzo-[b]-thiophene]										only sparingly soluble
CC(O)C(=O)O.O=C(c1ccc(OCCN2CCCCC2)cc1)c1c(-c2ccc(O)cc2)sc2cc(O)ccc12 [DL-lactate hemihydrate, [6-hydroxy-2-(4-hydroxyphenyl)benzo[b]thien-3-yl][4-[2-(1-piperidinyl)ethoxy]phenyl-, DL-lactate]	0.0056	0.0119	0.0062	0.0212	0.0215					
O=C(O)CC(=O)O.O=C(c1ccc(OCCN2CCCCC2)cc1)c1c(-c2ccc(O)cc2)sc2cc(O)ccc12 [Malonate]	0.0229	0.0173	0.0148	0.0136	0.0112					

More lines, main results first:

intrinsic dissolution rate (IDR) [1, 5] [μmol/min * cm^2]	intrinsic dissolution rate (IDR) [1, 6] [μmol/min * cm^2]	intrinsic dissolution rate (IDR) [1, 7] [μmol/min * cm^2]	intrinsic dissolution rate (IDR) [1, 8] [μmol/min * cm^2]	intrinsic dissolution rate (IDR) [1, 9] [μmol/min * cm^2]	solubility in aqueous media comprising hydrochloric acid [3]	Compound	dissolution evaluated visually ([2]; 60 mg in 0.1 M phosphoric acid, similar test)	dissolution evaluated visually ([2]; 60 mg in one liter 0.1 M HCl, vigorously mixed, room temperature over night)	solubility in aqueous solvents ([4]; hydrochloride)	solubility in aqueous solvents [4]
0.0550	0.0228	0.0271	0.0127	0.0119		[6-hydroxy-2-(4-hydroxyphenyl)benzo[b]thien-3-yl][4-[2-(1-piperidinyl)ethoxy]phenyl-, succinate				
0.0475	0.0453	0.0403	0.0190	0.0091		C[C@H](O)C(=O)O.O=C(c1ccc(OCCN2CCCCC2)cc1)c1c(-c2ccc(O)cc2)sc2cc(O)ccc12 [L-lactate hemihydrate]				
0.0022	0.0026	0.0022	0.0022	0.0044	decreases significant	O=C(c1ccc(OCCN2CCCCC2)cc1)c1c(-c2ccc(O)cc2)sc2cc(O)ccc12 [Hydrochloride, raloxifene hydrochloride, reference compound]	all raloxifene hydrochloride seemed to be dissolved	Very little of the initial added amount of raloxifene hydrochloride was dissolved	fairly soluble	
